The values that follow come from patent US4543255A, “Carbocyclic analogs of purine 2'-deoxyribofuranosides” (Southern Research Institute, priority 1984, dated 1985).

Test [1] has as its system Herpes Simplex Virus Type 2, Strain MS. Put plainly: antiviral activity vs herpes simplex virus type 2 (virus-induced cytopathogenic effects in host cells). The format is cell-based. The following applies: for VR (Virus Rating): VR ≥1 indicates definite antiviral activity, 0.5-0.9 marginal to moderate; for EC50: read-out: MIC50 (concentration for 50% inhibition of virus-induced cytopathogenic effects); for antiviral activity against HSV-2 (in words): comparisons are with Ara-A (positive control). As to the method: (§1) Certain representatives of Formulas V-VIII have potent antiviral activity and may be useful for the treatment of virus-induced diseases. The antiviral activity of compounds represented by Formulas V-VIII was measured as a virus rating (VR), and the potency (MIC50) was determined as the concentration of the tested compound required to inhibit virus-induced cytopathogenic effects in host cells by 50%. Carbocyclic analogs of 2'-deoxyribofuranosides represented by Formulas V-VIII have unequivocal and generally high activity in inhibiting replication of both type 1 herpes simplex virus (HSV-1) and type 2 herpes simplex virus (HSV-2). […] Notable examples are the carbocyclic analogs of 2,6-diaminopurine 2'-deoxyribofuranoside (Example 5), 2'-deoxyguanosine (Example 6), 2'-deoxythioguanosine (Example 7), 2,6-diamino-8-azapurine 2'-deoxyribofuranoside (Example 9), and 2'-deoxy-8-azaguanosine (Example 10).
(§2) Carbocyclic analogs (Formulas (V-VIII) of 2'-deoxyribofuranoside derivatives of 2-amino-6-substituted-purines and of 2-amino-6-substituted-8-azapurines were tested for antiviral activity against viruses that replicate in mammalian cells growing in cell culture. The results of these tests against herpes simplex viruses are summarized in Table 1. The Virus Rating (VR) is a weighted measurement of antiviral activity determined by the method of Ehrlich et al., Annals of the New York Academy of Science, volume 130, pages 5-16, 1965. In tests carried out by this method, a VR of 0.5-0.9 indicates marginal to moderate antiviral activity, and a VR equal to or greater than 1 indicates definite antiviral activity. The higher the value of VR, the greater is the antiviral activity. The MIC50 (minimum inhibitory concentration, 50%) is the concentration of a test compound required for 50% inhibition of virus-induced cytopathogenic effects. The 2'-deoxyribofuranoside analogs of Examples 4-10 have unequivocal and selective antiviral activity against both type 1 and type 2 strains of herpes simplex virus.
(§3) ^a Antiviral evaluations were performed with HSV1 and HSV2 replicatin
(§4) either in secondary cultures of rabbit kidney cells or in Vero cells.
(§5) ^b 9D-Arabinofuranosyladenine was tesed as a positive control; the
(§6) range of values of VR and MIC50 came from several tests with either
(§7) rabbit kidney cells or Vero cells as the host cells.
(Cytopathic effects are the visible damage that an infection or toxin causes in cultured cells.)

The subject of test [2] is Herpes Simplex Virus Type 1, Strain 377. Put plainly: antiviral activity vs herpes simplex virus type 1 (virus-induced cytopathogenic effects in host cells). The following applies: for VR (Virus Rating): VR ≥1 indicates definite antiviral activity, 0.5-0.9 marginal to moderate; for EC50: Human alphaherpesvirus 1, Vero, read-out: MIC50 (concentration for 50% inhibition of virus-induced cytopathogenic effects); for antiviral activity against HSV-1 (in words): comparisons are with Ara-A (positive control). The format is cell-based. The procedure:
as §1, §2, §3, §4, §5, §6, §7

[3] abbreviates: HSV-2 strain MS, rabbit kidney cells or Vero cells.
Setting [4] is: Human alphaherpesvirus 2, HSV-2 strain MS, rabbit kidney cells or Vero cells.
[5] abbreviates: HSV-1 strain 377, rabbit kidney cells or Vero cells.

Converted amounts (≈) assume the structure as drawn. “Also recorded” adds a separate entry of the source. Read-outs that look alike come from different tables or passages of the source. Some results are limits rather than exact numbers.

Turning to `Nc1nc(Cl)c2ncn([C@@H]3C[C@H](CO)[C@@H](O)C3)c2n1` (relative stereo) [Example 4, (1α, 2β, 4α)-4-(2-Amino-6-chloro-9H-purin-9-yl)-2-hydroxycyclopentanemethanol], the “VR (Virus Rating)” value in test [1] (setting [3]) amounted to 2.0; in test [2] (setting [5]), 1.9. The figures for the EC50 in test [1] (setting [4]) and in test [2] (setting [5]) were 37 µg/mL (≈ 130 µM) and 8.1 µg/mL (≈ 28.5 µM), respectively.

As to `Nc1nc(N)c2ncn([C@@H]3C[C@H](CO)[C@@H](O)C3)c2n1` (relative stereo) [Example 5, (1α, 2β, 4α)-4-(2,6-Diamino-9H-purin-9-yl)-2-hydroxycyclopentanemethanol], in test [1], the “antiviral activity against HSV-2 (in words)” value is “equivalent or superior in activity and potency to Ara-A; also recorded: markedly more effective than was Ara-A”. In test [1] (setting [3]), the “VR (Virus Rating)” value is on record as 2.9. Moreover, the EC50 in test [1] (setting [4]) is 2.4 µg/mL (≈ 9.08 µM). Moreover, the “antiviral activity against HSV-1 (in words)” value in test [2] was “more active (VR=4-5) and more potent (lower MIC50)”. In test [2] (setting [5]), the “MIC50 (concentration for 50% inhibition of virus-induced cytopathogenic effects)” value stood at 0.3 µg/mL and the EC50 was found to be 0.6 µg/mL (≈ 2.27 µM).

As to `Nc1nc2c(ncn2[C@@H]2C[C@H](CO)[C@@H](O)C2)c(=O)[nH]1` (relative stereo) [Example 6, 2-Amino-1,9-dihydro-9-[(1α, 3β, 4α)-3-hydroxy-4-(hydroxymethyl)cyclopentyl]-6H-purin-6-one], in test [1], the “antiviral activity against HSV-2 (in words)” value is “equivalent or superior in activity and potency to Ara-A; also recorded: markedly more effective than was Ara-A”. For the same molecule, the “VR (Virus Rating)” value is on record as 3.7 in test [1] (setting [3]) and at least 4.6 in test [2] (setting [5]). The EC50 in test [1] (setting [4]) is 0.8 µg/mL (≈ 3.02 µM); in test [2] (setting [5]) it was below 0.3 µg/mL. For the same molecule, in test [2], the “antiviral activity against HSV-1 (in words)” value is “more active (VR=4-5) and more potent (lower MIC50)”.

On to `Nc1nc2c(ncn2[C@@H]2C[C@H](CO)[C@@H](O)C2)c(=S)[nH]1` (relative stereo) [Example 7], for which the “VR (Virus Rating)” value in test [1] (setting [3]) amounted to 1.7. Moreover, the EC50 is 32 µg/mL (≈ 114 µM) in test [1] (setting [4]) and below 3.2 µg/mL in test [2] (setting [5]). Besides, the “antiviral activity against HSV-1 (in words)” value in test [2] is “more active (VR=4-5) and more potent (lower MIC50)”. The “MIC50 (concentration for 50% inhibition of virus-induced cytopathogenic effects)” value in test [2] (setting [5]) is 1.8 µg/mL.

Consider `Nc1nc(Cl)c2nnn([C@@H]3C[C@H](CO)[C@@H](O)C3)c2n1` (relative stereo) [Example 8, (1α, 2β, 4α)-4-(5-Amino-7-chloro-3H-1,2,3-triazolo[4,5-d]pyrimidin-3-yl)-2-hydroxycyclopentanemethanol], for which the “VR (Virus Rating)” value in test [1] (setting [3]) is 1.9. Besides, in test [1] (setting [4]), the EC50 came out at 23 µg/mL (≈ 80.8 µM). Besides, in test [2] (setting [5]), the “MIC50 (concentration for 50% inhibition of virus-induced cytopathogenic effects)” value came out at 1.6 µg/mL and the EC50 is below 1 µg/mL.

With `Nc1nc(N)c2nnn([C@@H]3C[C@H](CO)[C@@H](O)C3)c2n1` (relative stereo) [Example 9, (1α, 2β, 4α)-4-(5,7-Diamino-3H-1,2,3-triazolo[4,5-d]pyrimidin-3-yl)-2-hydroxycyclopentanemethanol], in test [1], the “antiviral activity against HSV-2 (in words)” value was “equivalent or superior in activity and potency to Ara-A; also recorded: at least as effective as Ara-A against HSV-2”. Moreover, the “VR (Virus Rating)” value in test [1] (setting [3]) was 2.3. For the same molecule, in test [1] (setting [4]), the EC50 is 10 µg/mL (≈ 37.7 µM). For the same molecule, the “antiviral activity against HSV-1 (in words)” value in test [2] is “more active (VR=4-5) and more potent (lower MIC50); also recorded: much more effective against HSV-1 than was Ara-A”. Besides, in test [2] (setting [5]), the “MIC50 (concentration for 50% inhibition of virus-induced cytopathogenic effects)” value was 2.0 µg/mL and the EC50 was below 3.2 µg/mL.

Take `Nc1nc2c(nnn2[C@@H]2C[C@H](CO)[C@@H](O)C2)c(=O)[nH]1` (relative stereo) [Example 10, 5-Amino-3,6-dihydro-3-[(1α, 2β, 4α)-3-hydroxy-4-(hydroxymethyl)cyclopentyl]-7H-1,2,3-triazolo[4,5-d]pyrimidin-7-one]: in test [1], the “antiviral activity against HSV-2 (in words)” value was “equivalent or superior in activity and potency to Ara-A; also recorded: at least as effective as Ara-A against HSV-2”. The “VR (Virus Rating)” value was found to be 2.1 in test [1] (setting [3]) and 4.2 in test [2] (setting [5]). Moreover, the EC50 in test [1] (setting [4]) turned out to be 6.9 µg/mL (≈ 25.9 µM); in test [2] (setting [5]), 0.6 µg/mL (≈ 2.25 µM). Besides, the “antiviral activity against HSV-1 (in words)” value in test [2] was “more active (VR=4-5) and more potent (lower MIC50); also recorded: much more effective against HSV-1 than was Ara-A”.

On to `Nc1ncnc2c1ncn2[C@@H]1O[C@H](CO)[C@@H](O)[C@@H]1O` [Ara-A, 9D-Arabinofuranosyladenine, reference compound], for which the “VR (Virus Rating)” value in test [1] (setting [3]) is recorded as 1.6-2.3; in test [2] (setting [5]) it was 2.5-3.1. Moreover, the EC50 in test [1] (Human alphaherpesvirus 2, Vero) fell in the range of 6.4 to 30 µg/mL (≈ 23.9 to 112 µM); in test [2], 6.4 to 9.8 µg/mL (≈ 23.9 to 36.7 µM).
